Earlier results in patent US20010051164A1, “1-0 ALKYLGLYCEROLS FOR PHARMACEUTICAL OR VETERINARY USE FOR PRESERVING AND/OR IMPROVING SPERM” (priority 1996, published 2001).

System: spermatozoons of various animal species and of man

Substance: 1-O-alkyl-2-acetyl-sn-glycero-3-phosphocholine [PAF]
- power of fertilisation of ovocytes by treated spermatozoons (ovocytes of the rabbit and of the mouse): increases their power of fertilisation
- motor function of the spermatozoons (various animal species and man): increases the motor function
